Results as given in patent publication US6737383B1, “Herbicidal oxadiazolidines” (priority 1999, dated 2004).

How the values were obtained:
[1] = test system: bedstraw; assay: Test B pre/postemergence bedstraw; format: in vivo, Galium aparine
In short: (§1)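 Herbicidal effect was estimated by eye on a ten-point control scale after plants spent twelve to sixteen days in a greenhouse following soil or foliar treatment. Foliar sprays targeted plants at one to four leaves; all doses were formulated in a non-phytotoxic solvent with surfactant.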

[2] = test system: blackgrass; assay: Test B pre/postemergence blackgrass; format: in vivo, Alopecurus myosuroides
In short: as §1

[3] = test system: surinam grass; assay: Test B pre/postemergence surinam grass; format: in vivo, Brachiaria decumbens
In short: as §1

[4] = test system: cocklebur; assay: Test B pre/postemergence cocklebur; format: in vivo, Xanthium strumarium
In short: as §1

[5] = test system: corn; assay: Test B pre/postemergence corn; format: in vivo, Zea mays
In short: as §1

[6] = test system: crabgrass; assay: Test B pre/postemergence crabgrass; format: in vivo, Digitaria sanguinalis
In short: as §1

[7] = test system: giant foxtail; assay: Test B pre/postemergence giant foxtail; format: in vivo, Setaria faberii
In short: as §1

[8] = test system: morningglory; assay: Test B pre/postemergence morningglory; format: in vivo, Ipomoea hederacea
In short: as §1

[9] = test system: soybean; assay: Test B pre/postemergence soybean; format: in vivo, Glycine max
In short: as §1

[10] = test system: velvetleaf; assay: Test B pre/postemergence velvetleaf; format: in vivo, Abutilon theophrasti
In short: as §1

[11] = test system: wheat; assay: Test B pre/postemergence wheat; format: in vivo, Triticum aestivum
In short: as §1

[12] = test system: wild oat; assay: Test B pre/postemergence wild oat; format: in vivo, Avena fatua
In short: as §1

[13] = test system: purple nutsedge; assay: Test B pre/postemergence purple nutsedge; format: in vivo, Cyperus rotundus
In short: as §1

[14] = test system: rice; assay: Test B flood test rice; format: in vivo, Oryza sativa
In short: (§2)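 Each value is a visual injury score relative to controls, with 10 meaning complete control and 0 no effect. Evaluation took place twelve to sixteen days after the 2-leaf-stage plants were treated and kept in the greenhouse.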

[15] = test system: smallflower flatsedge; assay: Test B flood test smallflower flatsedge; format: in vivo, Cyperus difformis
In short: as §2

[16] = test system: duck salad; assay: Test B flood test duck salad; format: in vivo, Heteranthera limosa
In short: as §2

[17] = test system: bamyardgrass; assay: Test B flood test barnyardgrass; format: in vivo, Echinochloa crus-galli
In short: as §2

[18] = Preemergence, Rate 62 g/ha, scale of 0 to 10 where 0 is no effect and 10 is complete control
[19] = Preemergence, Rate 125 g/ha, 0 is no effect, 10 is complete control
[20] = Preemergence, Rate 250 g/ha, scale 0 to 10, 0 is no effect, 10 is complete control
[21] = Preemergence, Rate 500 g/ha, scale 0 to 10 (0 no effect, 10 complete control)
[22] = Rate 62 g/ha, Postemergence, scale of 0 to 10 where 0 is no effect and 10 is complete control
[23] = Rate 125 g/ha, Postemergence, scale 0 to 10
[24] = Rate 500 g/ha, Postemergence, scale 0 to 10
[25] = Rate 62 g/ha, headed Pre-emergence (flood test species), scale 0 to 10 (0 no effect, 10 complete control)
[26] = Rate 125 g/ha, Pre-emergence, flood test species, scale 0 to 10 where 0 is no effect and 10 is complete control
[27] = Rate 250 g/ha, Pre-emergence, flood-test species, scale 0 to 10, 0 is no effect, 10 is complete control
[28] = Rate 500 g/ha, headed Pre-emergence (flood test species), scale 0 to 10 (0 no effect, 10 complete control)

For Cc1nc(C)c(Cn2c(=O)on(C(=O)N(c3ccc(Cl)cc3)C(C)C)c2=O)s1 [Compound 191], the “Bedstraw plant response rating” value [1, 18] was 0, the “Bedstraw plant response rating (0 to 10 scale)” value [1, 19] was 0 and the “Bedstraw plant response rating” value [1, 20] was 0. The “Bedstraw plant response rating” value [1, 21] was 0, the “Bedstraw plant response rating” value [1, 22] was 0 and the “Bedstraw plant response rating” value [1, 23] was 0. For the same compound, the “Plant response rating (0 to 10; 0 is no effect, 10 is complete control), Bedstraw” value ([1]; Rate 250 g/ha, Postemergence) was 0, the “Bedstraw plant response rating” value [1, 24] was 0 and the “Blackgrass plant response rating” value [2, 18] was 0. For the same compound, the “Blackgrass plant response rating (0 to 10 scale)” value [2, 19] was 0, the “Blackgrass plant response rating” value [2, 20] was 4 and the “Blackgrass plant response rating” value [2, 21] was 6. The “Blackgrass plant response rating” value [2, 22] was 0, the “Blackgrass plant response rating” value [2, 23] was 0 and the “Plant response rating (0 to 10; 0 is no effect, 10 is complete control), Blackgrass” value ([2]; Rate 250 g/ha, Postemergence) was 0. The “Blackgrass plant response rating” value [2, 24] was 3, the “B. signalgrass plant response rating” value [3, 18] was 0 and the “B. signalgrass plant response rating (0 to 10 scale)” value [3, 19] was 0. The “B. signalgrass plant response rating” value [3, 20] was 0, the “B. signalgrass plant response rating” value [3, 21] was 3 and the “B. signalgrass plant response rating” value [3, 22] was 0. For the same compound, the “B. signalgrass plant response rating” value ([3]; Rate 125 g/ha, Postemergence, scale 0 (no effect) to 10 (complete control)) was 0, the “Plant response rating, B. signalgrass” value ([3]; Rate 250 g/ha, Postemergence, scale 0 to 10, 0 is no effect, 10 is complete control) was 0 and the “B. signalgrass plant response rating” value ([3]; Rate 500 g/ha, Postemergence, scale 0 to 10, 0 no effect, 10 complete control) was 1. For the same compound, the “Cocklebur plant response rating” value [4, 18] was 0, the “Cocklebur plant response rating (0 to 10 scale)” value [4, 19] was 0 and the “Cocklebur plant response rating” value [4, 20] was 0. The “Cocklebur plant response rating” value [4, 21] was 0, the “Cocklebur plant response rating” value [4, 22] was 1 and the “Cocklebur plant response rating” value [4, 23] was 2. For the same compound, the “Plant response rating (0 to 10; 0 is no effect, 10 is complete control), Cocklebur” value ([4]; Rate 250 g/ha, Postemergence) was 2, the “Cocklebur plant response rating” value [4, 24] was 3 and the “Corn plant response rating” value [5, 18] was 0. The “Corn plant response rating (0 to 10 scale)” value [5, 19] was 0, the “Corn plant response rating” value [5, 20] was 0 and the “Corn plant response rating” value [5, 21] was 0. The “Corn plant response rating” value [5, 22] was 0, the “Corn plant response rating” value [5, 23] was 0 and the “Plant response rating (0 to 10; 0 is no effect, 10 is complete control), Corn” value ([5]; Rate 250 g/ha, Postemergence) was 0. The “Corn plant response rating” value [5, 24] was 0, the “Crabgrass plant response rating” value [6, 18] was 0 and the “Crabgrass plant response rating (0 to 10 scale)” value [6, 19] was 3. For the same compound, the “Crabgrass plant response rating” value [6, 20] was 8, the “Crabgrass plant response rating” value [6, 21] was 8 and the “Crabgrass plant response rating” value [6, 22] was 2. For the same compound, the “Crabgrass plant response rating” value [6, 23] was 2, the “Plant response rating (0 to 10; 0 is no effect, 10 is complete control), Crabgrass” value ([6]; Rate 250 g/ha, Postemergence) was 3 and the “Crabgrass plant response rating” value [6, 24] was 6. For the same compound, the “Giant foxtail plant response rating” value [7, 18] was 3, the “Giant foxtail plant response rating (0 to 10 scale)” value [7, 19] was 8 and the “Giant foxtail plant response rating” value [7, 20] was 9. The “Giant foxtail plant response rating” value [7, 21] was 10, the “Giant foxtail plant response rating” value [7, 22] was 0 and the “Giant foxtail plant response rating” value [7, 23] was 0. For the same compound, the “Plant response rating (0 to 10; 0 is no effect, 10 is complete control), Giant foxtail” value ([7]; Rate 250 g/ha, Postemergence) was 0, the “Giant foxtail plant response rating” value [7, 24] was 2 and the “Morningglory plant response rating” value [8, 18] was 0. The “Morningglory plant response rating” value [8, 20] was 0, the “Morningglory plant response rating” value [8, 21] was 0 and the “Morningglory plant response rating” value [8, 22] was 1. The “Morningglory plant response rating” value [8, 23] was 2, the “Plant response rating (0 to 10; 0 is no effect, 10 is complete control), Morningglory” value ([8]; Rate 250 g/ha, Postemergence) was 2 and the “Morningglory plant response rating” value [8, 24] was 8. The “Soybean plant response rating” value [9, 18] was 0, the “Soybean plant response rating (0 to 10 scale)” value [9, 19] was 0 and the “Soybean plant response rating” value [9, 20] was 0. For the same compound, the “Soybean plant response rating” value [9, 21] was 0, the “Soybean plant response rating” value [9, 22] was 3 and the “Soybean plant response rating” value [9, 23] was 3. For the same compound, the “Plant response rating (0 to 10; 0 is no effect, 10 is complete control), Soybean” value ([9]; Rate 250 g/ha, Postemergence) was 3, the “Soybean plant response rating” value [9, 24] was 4 and the “Velvetleaf plant response rating” value [10, 18] was 0. The “Velvetleaf plant response rating” value [10, 20] was 0, the “Velvetleaf plant response rating” value [10, 21] was 0 and the “Velvetleaf plant response rating” value [10, 22] was 0. For the same compound, the “Velvetleaf plant response rating” value [10, 23] was 0, the “Plant response rating (0 to 10; 0 is no effect, 10 is complete control), Velvetleaf” value ([10]; Rate 250 g/ha, Postemergence) was 2 and the “Wheat plant response rating” value [11, 18] was 0. The “Wheat plant response rating” value [11, 20] was 0, the “Wheat plant response rating” value [11, 21] was 2 and the “Wheat plant response rating” value [11, 22] was 0. For the same compound, the “Wheat plant response rating” value [11, 23] was 0, the “Plant response rating (0 to 10; 0 is no effect, 10 is complete control), Wheat” value ([11]; Rate 250 g/ha, Postemergence) was 0 and the “Wild oats plant response rating” value [12, 20] was 3. For the same compound, the “Wild oats plant response rating” value [12, 21] was 7, the “Wild oats plant response rating” value [12, 22] was 0 and the “Wild oats plant response rating” value [12, 23] was 0. For the same compound, the “Plant response rating (0 to 10; 0 is no effect, 10 is complete control), Wild oats” value ([12]; Rate 250 g/ha, Postemergence) was 0, the “Nutsedge plant response rating” value [13, 18] was 0 and the “Nutsedge plant response rating (0 to 10 scale)” value [13, 19] was 0. The “Nutsedge plant response rating” value [13, 20] was 0, the “Nutsedge plant response rating” value [13, 21] was 0 and the “Nutsedge plant response rating” value [13, 22] was 0. The “Nutsedge plant response rating” value [13, 23] was 0, the “Plant response rating (0 to 10; 0 is no effect, 10 is complete control), Nutsedge” value ([13]; Rate 250 g/ha, Postemergence) was 0 and the “Nutsedge plant response rating” value [13, 24] was 0. The “Rice plant response rating” value [14, 25] was 0, the “Rice plant response rating” value [14, 26] was 0 and the “Rice plant response rating” value [14, 27] was 0. The “Plant response rating, Rice” value [14, 28] was 0, the “S. Flatsedge plant response rating” value [15, 25] was 0 and the “S. Flatsedge plant response rating” value [15, 26] was 0. The “S. Flatsedge plant response rating” value [15, 27] was 0, the “S. Flatsedge plant response rating” value ([15]; Rate 500 g/ha, Pre-emergence, flood test species, scale 0 to 10 (0 no effect, 10 complete control)) was 0 and the “Ducksalad plant response rating” value [16, 25] was 0. The “Ducksalad plant response rating” value [16, 26] was 0, the “Ducksalad plant response rating” value [16, 27] was 0 and the “Plant response rating, Ducksalad” value [16, 28] was 0. For the same compound, the “Barnyardgrass plant response rating” value [17, 25] was 0, the “Barnyardgrass plant response rating” value [17, 26] was 0 and the “Barnyardgrass plant response rating” value [17, 27] was 0. For the same compound, the “Plant response rating, Barnyardgrass” value [17, 28] was 0.
